# According to ChEMBL document CHEMBL3885881, “DrugMatrix”:
# Organism: Rattus norvegicus
# Test: DrugMatrix - Regimen: Daily Repeat
# Assay type: toxicity, organism-based, Sprague-Dawley
# Parameters: regimen Daily Repeat, gender Male, age 6-8 weeks
# Conditions: in vivo, po, route oral GAVAGE, vehicle .5 % CMC; for BASOPHIL / EOSINOPHIL / ERYTHROCYTE COUNT / HEMATOCRIT / HEMOGLOBIN / LEUKOCYTE COUNT / LYMPHOCYTE / MEAN CORPUSCULAR HEMOGLOBIN / MEAN CORPUSCULAR HEMOGLOBIN CONCENTRATION / MEAN CORPUSCULAR VOLUME / MONOCYTE / NEUTROPHIL / PLATELET COUNT: tissue Blood; for ALANINE AMINOTRANSFERASE / ALKALINE PHOSPHATASE / ASPARTATE AMINOTRANSFERASE / BLOOD UREA NITROGEN / CHLORIDE / CHOLESTEROL / CREATINE PHOSPHOKINASE / CREATININE / GLUCOSE / PHOSPHORUS / POTASSIUM / SODIUM / TOTAL BILIRUBIN / TOTAL PROTEIN: tissue Plasma
# [1] = 0 mg/kg, 72 h, dose level Control, time 3 day
# [2] = 0 mg/kg, 120 h, dose level Control, time 5 day
# [3] = 20 mg/kg, 72 h, dose level Low, time 3 day
# [4] = 20 mg/kg, 120 h, dose level Low, time 5 day
# [5] = 95 mg/kg, 72 h, dose level High, time 3 day
# [6] = 95 mg/kg, 120 h, dose level High, time 5 day
smiles,measurement,setting,value
CN1CCN(C2=Nc3cc(Cl)ccc3Nc3ccccc32)CC1 [CLOZAPINE],BASOPHIL,[1],0%
same,EOSINOPHIL,[1],0.33%
same,ERYTHROCYTE COUNT,[1],6.2 x10E6/uL
same,HEMATOCRIT,[1],38.08%
same,HEMOGLOBIN,[1],14.92 G/DL
same,LEUKOCYTE COUNT,[1],11.13 x10E3/uL
same,LYMPHOCYTE,[1],76%
same,MEAN CORPUSCULAR HEMOGLOBIN,[1],24.1 pg
same,MEAN CORPUSCULAR HEMOGLOBIN CONCENTRATION,[1],39.17 G/DL
same,MEAN CORPUSCULAR VOLUME,[1],61.48 fL
same,MONOCYTE,[1],3.83%
same,NEUTROPHIL,[1],19.83%
same,PLATELET COUNT,[1],1327.5 x10E3/uL
same,ALANINE AMINOTRANSFERASE,[1],40.17 u/L
same,ALKALINE PHOSPHATASE,[1],372 u/L
same,ASPARTATE AMINOTRANSFERASE,[1],67.17 u/L
same,BLOOD UREA NITROGEN,[1],18.83 mg/dL
same,CHLORIDE,[1],105.17 MEQ/L
same,CHOLESTEROL,[1],78.17 mg/dL
same,CREATINE PHOSPHOKINASE,[1],149.17 u/L
same,CREATININE,[1],0.57 mg/dL
same,GLUCOSE,[1],185.17 mg/dL
same,PHOSPHORUS,[1],11.43 mg/dL
same,POTASSIUM,[1],6.78 MEQ/L
same,SODIUM,[1],152.83 MEQ/L
same,TOTAL BILIRUBIN,[1],0.4 mg/dL
same,TOTAL PROTEIN,[1],6.87 G/DL
same,BASOPHIL,[2],0%
same,EOSINOPHIL,[2],0%
same,ERYTHROCYTE COUNT,[2],6.05 x10E6/uL
same,HEMATOCRIT,[2],36.55%
same,HEMOGLOBIN,[2],14.7 G/DL
same,LEUKOCYTE COUNT,[2],11.8 x10E3/uL
same,LYMPHOCYTE,[2],86.83%
same,MEAN CORPUSCULAR HEMOGLOBIN,[2],24.37 pg
same,MEAN CORPUSCULAR HEMOGLOBIN CONCENTRATION,[2],40.32 G/DL
same,MEAN CORPUSCULAR VOLUME,[2],60.47 fL
same,MONOCYTE,[2],0.83%
same,NEUTROPHIL,[2],12.33%
same,PLATELET COUNT,[2],1177 x10E3/uL
same,ALANINE AMINOTRANSFERASE,[2],41.83 u/L
same,ALKALINE PHOSPHATASE,[2],377.5 u/L
same,ASPARTATE AMINOTRANSFERASE,[2],60.83 u/L
same,BLOOD UREA NITROGEN,[2],16 mg/dL
same,CHLORIDE,[2],105.67 MEQ/L
same,CHOLESTEROL,[2],67.83 mg/dL
same,CREATINE PHOSPHOKINASE,[2],120.33 u/L
same,CREATININE,[2],0.6 mg/dL
same,GLUCOSE,[2],167.67 mg/dL
same,PHOSPHORUS,[2],10.03 mg/dL
same,POTASSIUM,[2],6.68 MEQ/L
same,SODIUM,[2],150.5 MEQ/L
same,TOTAL BILIRUBIN,[2],0.57 mg/dL
same,TOTAL PROTEIN,[2],6.25 G/DL
same,BASOPHIL,[3],0%
same,EOSINOPHIL,[3],0.5%
same,ERYTHROCYTE COUNT,[3],5.3 x10E6/uL
same,HEMATOCRIT,[3],33.4%
same,HEMOGLOBIN,[3],12.8 G/DL
same,LEUKOCYTE COUNT,[3],10.25 x10E3/uL
same,LYMPHOCYTE,[3],83.5%
same,MEAN CORPUSCULAR HEMOGLOBIN,[3],24.2 pg
same,MEAN CORPUSCULAR HEMOGLOBIN CONCENTRATION,[3],38.35 G/DL
same,MEAN CORPUSCULAR VOLUME,[3],62.95 fL
same,MONOCYTE,[3],0%
same,NEUTROPHIL,[3],16%
same,PLATELET COUNT,[3],1071.5 x10E3/uL
same,ALANINE AMINOTRANSFERASE,[3],33.33 u/L
same,ALKALINE PHOSPHATASE,[3],312 u/L
same,ASPARTATE AMINOTRANSFERASE,[3],54 u/L
same,BLOOD UREA NITROGEN,[3],13.33 mg/dL
same,CHLORIDE,[3],104.33 MEQ/L
same,CHOLESTEROL,[3],84.67 mg/dL
same,CREATINE PHOSPHOKINASE,[3],145.33 u/L
same,CREATININE,[3],0.57 mg/dL
same,GLUCOSE,[3],148.67 mg/dL
same,PHOSPHORUS,[3],11.43 mg/dL
same,POTASSIUM,[3],6.5 MEQ/L
same,SODIUM,[3],149 MEQ/L
same,TOTAL BILIRUBIN,[3],0.3 mg/dL
same,TOTAL PROTEIN,[3],5.9 G/DL
same,BASOPHIL,[4],0%
same,EOSINOPHIL,[4],0%
same,ERYTHROCYTE COUNT,[4],6.24 x10E6/uL
same,HEMATOCRIT,[4],37.73%
same,HEMOGLOBIN,[4],14.93 G/DL
same,LEUKOCYTE COUNT,[4],15.97 x10E3/uL
same,LYMPHOCYTE,[4],93.67%
same,MEAN CORPUSCULAR HEMOGLOBIN,[4],23.97 pg
same,MEAN CORPUSCULAR HEMOGLOBIN CONCENTRATION,[4],39.57 G/DL
same,MEAN CORPUSCULAR VOLUME,[4],60.57 fL
same,MONOCYTE,[4],1.33%
same,NEUTROPHIL,[4],5%
same,PLATELET COUNT,[4],1152.67 x10E3/uL
same,ALANINE AMINOTRANSFERASE,[4],36.67 u/L
same,ALKALINE PHOSPHATASE,[4],370 u/L
same,ASPARTATE AMINOTRANSFERASE,[4],55.67 u/L
same,BLOOD UREA NITROGEN,[4],13 mg/dL
same,CHLORIDE,[4],106 MEQ/L
same,CHOLESTEROL,[4],72.33 mg/dL
same,CREATINE PHOSPHOKINASE,[4],147.67 u/L
same,CREATININE,[4],0.57 mg/dL
same,GLUCOSE,[4],152.33 mg/dL
same,PHOSPHORUS,[4],11.4 mg/dL
same,POTASSIUM,[4],6.5 MEQ/L
same,SODIUM,[4],149 MEQ/L
same,TOTAL BILIRUBIN,[4],0.3 mg/dL
same,TOTAL PROTEIN,[4],5.87 G/DL
same,BASOPHIL,[5],0%
same,EOSINOPHIL,[5],0.33%
same,ERYTHROCYTE COUNT,[5],6.22 x10E6/uL
same,HEMATOCRIT,[5],37.83%
same,HEMOGLOBIN,[5],14.53 G/DL
same,LEUKOCYTE COUNT,[5],10.53 x10E3/uL
same,LYMPHOCYTE,[5],81.33%
same,MEAN CORPUSCULAR HEMOGLOBIN,[5],23.4 pg
same,MEAN CORPUSCULAR HEMOGLOBIN CONCENTRATION,[5],38.43 G/DL
same,MEAN CORPUSCULAR VOLUME,[5],60.87 fL
same,MONOCYTE,[5],1%
same,NEUTROPHIL,[5],17.33%
same,PLATELET COUNT,[5],1046 x10E3/uL
same,ALANINE AMINOTRANSFERASE,[5],43.67 u/L
same,ALKALINE PHOSPHATASE,[5],361.33 u/L
same,ASPARTATE AMINOTRANSFERASE,[5],61.67 u/L
same,BLOOD UREA NITROGEN,[5],16.33 mg/dL
same,CHLORIDE,[5],108 MEQ/L
same,CHOLESTEROL,[5],85.33 mg/dL
same,CREATINE PHOSPHOKINASE,[5],131.33 u/L
same,CREATININE,[5],0.57 mg/dL
same,GLUCOSE,[5],153.33 mg/dL
same,PHOSPHORUS,[5],11.9 mg/dL
same,POTASSIUM,[5],7.33 MEQ/L
same,SODIUM,[5],154.33 MEQ/L
same,TOTAL BILIRUBIN,[5],0.27 mg/dL
same,TOTAL PROTEIN,[5],6.13 G/DL
same,BASOPHIL,[6],0%
same,EOSINOPHIL,[6],0.67%
same,ERYTHROCYTE COUNT,[6],6.78 x10E6/uL
same,HEMATOCRIT,[6],41.33%
same,HEMOGLOBIN,[6],16.27 G/DL
same,LEUKOCYTE COUNT,[6],12.7 x10E3/uL
same,LYMPHOCYTE,[6],89.67%
same,MEAN CORPUSCULAR HEMOGLOBIN,[6],24.13 pg
same,MEAN CORPUSCULAR HEMOGLOBIN CONCENTRATION,[6],39.43 G/DL
same,MEAN CORPUSCULAR VOLUME,[6],61.1 fL
same,MONOCYTE,[6],0.33%
same,NEUTROPHIL,[6],9.33%
same,PLATELET COUNT,[6],1299 x10E3/uL
same,ALANINE AMINOTRANSFERASE,[6],60.33 u/L
same,ALKALINE PHOSPHATASE,[6],306.67 u/L
same,ASPARTATE AMINOTRANSFERASE,[6],59.67 u/L
same,BLOOD UREA NITROGEN,[6],14.67 mg/dL
same,CHLORIDE,[6],107 MEQ/L
same,CHOLESTEROL,[6],96.67 mg/dL
same,CREATINE PHOSPHOKINASE,[6],136 u/L
same,CREATININE,[6],0.5 mg/dL
same,GLUCOSE,[6],158 mg/dL
same,PHOSPHORUS,[6],11.83 mg/dL
same,POTASSIUM,[6],6.7 MEQ/L
same,SODIUM,[6],155.67 MEQ/L
same,TOTAL BILIRUBIN,[6],0.2 mg/dL
same,TOTAL PROTEIN,[6],6.6 G/DL
